According to patent US11766472B2, “Method of treatment for hair loss” (priority 2021, dated 2023):
Like-named read-outs stand apart in the source and are kept apart here.

Key:
[1] = tested on: hair loss (men Norwood Hamilton grade III to grade V; women Ludwig grade II and III); conditions: human, in vivo
Experimental: (§1) This controlled clinical trial compares the current treatment for hair loss within two controlled groups for both men and women against the use of one embodiment of the nutritional therapy regimen described herein. One hundred patients in each of the 4 groups, a total of 400 patients, were followed for 1 year. The progress was evaluated every 2 months with computerized measurements of hair density, hair caliber, global photography and uniquely designed self-assessment scores.
(§2) Group 3 TM: Treatment group for 100 men (TM) and
(§3) Group 4 TW: treatment group for 100 women (TW)
(§4) Treatment groups for both men and women followed the same protocol.

hair loss = conditions: cited from earlier work
[2] = tested on: hair loss (men Norwood Hamilton grade III to grade V; women Ludwig grade II and III); assay: Controlled clinical trial: minoxidil and finasteride in men, minoxidil alone in women, versus nutrient treatment regimen (Example 1); conditions: human, in vivo
Experimental: as §1, §2, §3, §4

| Duration for which patients complained of hair loss (initial shedding) [1] | SMILES | Side effects observed with the control group [1] | Patients having deteriorated with hair loss more than the initial status (hair loss; after one year) | Improvement (hair loss; end of 1 year) | Non-responders (hair loss; end of 1 year) | Side effects observed with the control group [2] |
| --- | --- | --- | --- | --- | --- | --- |
| – | CC(C)(C)NC(=O)[C@H]1CC[C@H]2[C@@H]3CC[C@H]4NC(=O)C=C[C@]4(C)[C@H]3CC[C@]12C [finasteride] | Loss of libido was reported by a few patients | 17% | 48-59% | 41-52% | – |
| 8-10 weeks | Nc1cc(N2CCCCC2)nc(N)[n+]1[O-] [minoxidil] | – | – | – | – | scalp irritation, dryness, itching, and frizzy hair |
